US10010400B2, “Devices and methods for local delivery of drug to upper urinary tract” (TARIS Biomedical LLC, priority 2015, dated 2018)

Assay: in vitro osmotic pumping of methylene blue up a capillary tube from a closed drug reservoir
Assay type: physicochemical
Conditions: reservoir with urea and lactose tablets in 125 mL degassed, deionized water; 36 cm capillary tube extended vertically
Description: Another experimental system was designed to simulate a ureteral drug delivery device having a flexible elongate body with a bladder end portion and a kidney end portion, a drug reservoir located at the bladder end portion which contains a drug and has a semi-permeable wall, and a drug lumen (capillary tube) having a first opening into the drug reservoir and a second end opening at the kidney end portion of the flexible elongate body. The ureteral drug delivery device used in the experiments was configured to permit water to enter the drug reservoir through the semi-permeable wall to create an osmotic pressure to pump the drug from the drug reservoir through the capillary tube and out of the device through the second end opening.
In this experiment, a drug reservoir similar to that illustrated in FIG. 11A was prepared. In particular, a spacer end piece was adhered using silicone adhesive within a tubular silicone housing. 10.5 cm of urea tablets, 4 cm of lactose tablets, and one tablet containing methylene blue were loaded into the tubular housing. A capillary tube (36 cm) having two spacers disposed in a spaced relationship at one end was slid into the tubular housing of the drug reservoir, adjacent the methylene blue tablet. […]

movement of the dye up the capillary tube: observed
Compound: CN(C)c1ccc2nc3ccc(=[N+](C)C)cc-3sc2c1 [methylene blue]
